From US6969616B2 (Kaneka Corporation, priority 2000, dated 2005)

Test system: enterotoxins
Assay type: binding, Staphylococcus aureus

CCCCCCCCN [n-octylamine]
adsorptive affinity for enterotoxins: phenomenal increase in the adsorptive affinity for enterotoxins
